Test results reported in PubChem BioAssay AID179 (DTP/NCI, 2004).
Values joined by “and” are separate entries in the source; they are usually repeats but may differ in a detail not shown here. Identical values can stand only once. Active and inactive are the calls of the source.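 The calls were made as follows: active = compounds giving half or more protection of infected cells from virus-caused growth loss, again on retest; inactive = the rest.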 Where a SMILES comes first, the peptide text is derived from it. The star is where a group is joined. Boc = CC(C)(C)OC(=O)*; OBn = c1ccc(CO*)cc1

Test system: CEM cells HIV-1 protection, formazan growth assay
Test: NCI AIDS Antiviral Assay
Conditions: for IC50: measured here: growth of uninfected CEM cells
Outline: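 Screen of anti-HIV-1 activity in human CEM cells using a formazan-based growth measurement at five drug concentrations. Hits with 50% or greater protection were repeated, and confirmation required reproducible complete protection.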

Compound	EC50	IC50	outcome
O=c1c2cc(S(=O)(=O)Nc3ccc(Cl)cc3Cl)ccc2ncn1NS(=O)(=O)c1cccc2ccccc12	> 200 µM	33.1 µM	–
O[C@]12c3ccccc3C1CCCC2N1CCOCC1 (stereo partly specified)	> 200 µM	> 200 µM	–
CCOC(=O)NC(=O)c1cn(CCCCCCOC(=O)NCCCCCCNC(=O)OCCCCCCn2cc(C(=O)NC(=O)OCC)c(=O)[nH]c2=O)c(=O)[nH]c1=O	–	–	inactive
Cc1cc(NS(=O)(=O)c2ccc(NC(=O)c3ccccc3SC(=O)CCCC[n+]3ccccc3)cc2)nc(C)n1	26.3 µM	107 µM	–
CCCCc1c2c(nc3c1CCc1cc4cc5c(nc4nc1-3)-c1nc3c(c(CCCC)c1CC5)CCCC3)CCCC2	> 0.977 µM	> 0.977 µM	–
COc1ccccc1/C=N/Nc1nnc2c3ccccc3c3ncccc3c2n1	> 200 µM	138 µM	–
CC(NS(=O)(=O)c1ccc(Cl)cc1)C(=O)O (stereo unspecified)	–	–	inactive
CC(=O)Nc1ccc(Nc2nc(=O)[nH]c(=O)[nH]2)cc1	> 200 µM	> 200 µM	–
NS(=O)(=O)c1cc2c(cc1Cl)NC(C(=O)NNC(=O)c1ccncc1)=NS2(=O)=O	> 77.6 µM	> 77.6 µM	–
CC1=NNC(=O)C1C1CC(c2c[nH]c3ccccc23)=NN(C(N)=O)C1=O (stereo unspecified)	> 200 µM	> 100 µM	–
Nc1nc(Cl)cc(NCCC2(CO)CCC2)n1	> 200 µM	> 200 µM	–
COC(=O)c1nsc(OC)c1Cl	> 200 µM	> 200 µM	–
C1=C2CN3CCC45c6ccccc6N6CCC(OC1)C(C2CC34)C65 (stereo unspecified)	> 776 µM	302 µM	–
C=CCNC(=S)Nc1ccccn1	> 200 µM	> 200 µM	–
Nc1nnc2c(n1)[nH]c1ccccc12	> 74.1 µM	> 74.1 µM	–
CC(C)c1nsc2c1C(=O)NC(C(C)(C)C)N2 (stereo unspecified)	> 269 µM	209 µM	–
C[P+]1(CCc2ccc(Cl)cc2)CC=CC1	–	–	inactive
O=C1[C@H]2CCCC[C@H]2C(=O)N1N1C(=O)[C@H]2CCCC[C@H]2C1=O	–	–	inactive
C[Si](C)(C)O[C@@H]1CCCC1N (stereo partly specified)	–	–	inactive
CCC12C=CCN3CC[C@@]4(c5cc([C@@]6(C(=O)OC)CC7CN(C[C@]8(CC)OC78)[C@H](CC(C)=O)Cc7c6[nH]c6ccccc76)c(OC)cc5N(C)[C@H]4[C@@](O)(C(=O)OC)[C@@H]1OC(C)=O)[C@H]32 (stereo partly specified)	–	–	inactive
CC(C)=CC(C(O)c1ccccc1)S(=O)(=O)c1nccn1C (stereo unspecified)	> 407 µM	> 407 µM	–
O=c1c2ncn(C3CCCO3)c2n(-c2ccccc2)c(=S)n1-c1ccccc1 (stereo unspecified)	> 200 µM	> 200 µM	–

Compound	EC50	IC50	outcome
CC(C)(C)C(=O)CS(=O)(=O)O	> 200 µM	> 200 µM	–
COc1ccc(-c2sc(N)c(C#N)c2C)cc1OC	–	–	inactive
N#CCCN(CCC#N)c1ccc(/C=C(\NC(=O)c2cc([N+](=O)[O-])ccc2Cl)C(=O)Nc2ccccc2)cc1	> 13.2 µM	> 13.2 µM	–
C=C1C(=O)OC2CC(C)C3(O)C=C(C(C)=O)C4(OC3CC12)C(=O)OC1CC(C)C2(/C=C\C(C)=O)OC2CC14 (stereo unspecified)	> 479 µM	81.3 µM	–
CCCCC(C(=O)C(=O)Nc1ccccc1CC)C(=O)C(C)C (stereo unspecified)	–	–	inactive
CC(C)Oc1c(C2(c3ccccc3O)SCCCS2)c(=O)c1=O	> 200 µM	112 µM	–
C/C(=N/O)c1sc(-c2nc(C)c(/C(C)=N\O)s2)nc1C	> 115 µM	> 115 µM	–
O=C(CSC1=NNC2(C(=O)N1)c1ccccc1-c1ccccc12)NC(=S)Nc1ccccc1	> 200 µM	25.7 µM	–
O=c1[nH]nc(Cc2ccccc2)n1/N=C/c1cccnc1	56.2 µM	> 200 µM	–
CSc1cnnc2ccccc12	> 603 µM	263 µM	–
C=C(C)[C@@]1(O)O[C@H]2C[C@@]3(C)OC(=CC3=O)/C(C)=C\[C@@H]3OC(=O)[C@@]1(C)[C@H]32	> 200 µM	5.25 µM	–
O=C1c2ccccc2C(=O)N1CCc1ncc[nH]1	> 200 µM	> 200 µM	–
O=C(O)/C=N\Nc1nc2ccccc2[nH]1	> 200 µM	> 200 µM	–
CC1(C)CNC[C@@]2(C)OCCOCCOCCO[C@@]3(C)CNCC(C)(C)NC(=O)[C@](C)(CNCC(C)(C)NC3=O)OCCOCCOCCO[C@](C)(CNCC(C)(C)NC2=O)C(=O)N1	> 200 µM	> 200 µM	–
C=Cc1ccncc1	> 200 µM	> 200 µM	–
Cc1cc(C)c2c(c1)CSCc1cc(C)cc(C)c1-2	–	–	inactive
Cc1cccc(Nc2cn(CCOc3ccccc3)c(=O)[nH]c2=O)c1	> 200 µM	27.5 µM	–
O=[N+]([O-])c1cc(Cl)ccc1S(=O)(=O)c1ccccc1	> 200 µM	30.2 µM and 55 µM	–
O=C(NCc1cccnc1)C1COc2cc(-c3cc(=O)c4ccccc4o3)ccc2O1 (stereo unspecified)	–	–	inactive
N=C(N)c1ccc(/C=C/c2ccc(C(=N)N)cc2O)cc1	> 1450 µM	55 µM	–
OCCCNCC(O)c1ccc(OCc2ccccc2)c(OCc2ccccc2)c1 (stereo unspecified)	> 200 µM	5.13 µM	–
CC(C)(C=O)CC(C#N)/C(=N\NC(N)=O)C(=O)Nc1ccccc1C(N)=O (stereo unspecified)	> 676 µM	> 676 µM	–

Compound	EC50	IC50	outcome
O=C(c1ccc(Cl)cc1)c1cnc(Nc2ccccc2Cl)s1	> 10.7 µM	> 10.7 µM	–
OC(C#CCN1CCCC1)(c1ccccc1)c1ccc(Cl)cc1.[C-]#[O+].[C-]#[O+].[C-]#[O+].[C-]#[O+].[C-]#[O+].[C-]#[O+].[Co].[Co] (stereo unspecified)	> 200 µM	5.62 µM	–
NC(CSC(c1ccccc1)(c1ccccc1)c1ccccc1)C(=O)O (stereo unspecified)	> 49 µM	0.813 µM	–
CC(C)CC(NC(=O)OC(C)(C)C)C(=O)NC(CC(=O)OCc1ccccc1)C(N)=O (stereo not drawn) (Boc-Leu-Asp(OBn)-NH2; configuration not given here)	> 200 µM	> 200 µM	–
CC1=CC(=O)c2c(C=O)c(O)c(O)c(C(C)C)c2C1=O	> 95.5 µM	1.91 µM	–
CCC(C#N)(c1ccccc1)N(CCc1ccccc1)C(=O)c1ccccc1 (stereo unspecified)	> 200 µM	191 µM	–
Cc1ccc2nn(-c3ccc(O)cc3)nc2c1	–	–	inactive
C[CH2][Sn]([Cl])([CH2]C)[CH2]C	–	–	inactive
CCOC(=O)c1c2cccccc2n2c(=O)cc(C)nc12	–	–	inactive
CC(NC(=O)C(NC(=O)C(NC(=O)C(F)(F)F)C(C)C)C(C)C)C(=O)Oc1c(Cl)c(Cl)c(Cl)c(Cl)c1Cl (stereo unspecified)	> 200 µM	141 µM	–
Oc1ccc([I+]c2ccccc2)cc1O	> 107 µM	30.2 µM	–
Nc1nc(N)c(N=O)c(Nc2ccccc2)n1	> 200 µM	33.9 µM	–
COc1ccc2c(c1)CCC(OS(=O)(=O)CC13CCC(CC1=O)C3(C)C)C2=O (stereo unspecified)	> 200 µM	10.5 µM	–
O=c1ccc2ccccc2n1O	> 200 µM	> 200 µM	–
CC12CCC3(C1)[C@H](CC2=O)C[C@@H](OC(=O)c1ccccc1)C1C(C)(CO)CCC[C@@]13C (stereo partly specified)	> 44.7 µM	0.891 µM	–
O=C(O)/C=C/c1c2ccc(=O)c(O)c-2oc2c(O)c(O)ccc12	6.03 µM and 24 µM	151 µM and 162 µM	–
N#Cc1ccc(Oc2nc3ccccc3nc2-c2ccccc2)cc1	> 200 µM	> 200 µM	–
NC(=O)NN=C1CCC(CC2CCCCC2)CC1 (stereo unspecified)	> 200 µM	174 µM	–
C1=CC2(C=C1)OC21CCC2(C=CC3(C2)OC3C2CCCCC2)CC1 (stereo unspecified)	> 200 µM	51.3 µM	–
Cc1cc(=O)n2c(n1)sc1ccc3ccccc3c12	> 200 µM	> 200 µM	–
COc1cccc(N2C(=O)c3c(c4[nH]c5ccccc5c4c4ccc(C(C)(C)C)cc34)C2=O)c1	> 11.5 µM	> 11.5 µM	–
COc1ccc([C@H]2CC(=O)C[C@H](c3ccc(OC)cc3OC)C23C(=O)c2ccccc2C3=O)c(OC)c1	> 200 µM	151 µM	–

Compound	EC50	IC50	outcome
O=C(O)CCC(NC(=O)c1ccc(Nc2nc3ccccc3nc2-c2cccs2)cc1)C(=O)O (stereo unspecified)	> 525 µM	457 µM	–
NC1=NN(c2ccccc2)C(=O)C1C(=O)C(=O)Nc1ccccc1 (stereo unspecified)	–	–	inactive
O=c1ssc(Cl)c1Cl	> 200 µM	33.9 µM	–
COC12C=CC(CC1)C(C)(C)C2O (stereo unspecified)	> 200 µM	> 200 µM	inactive
CCOP(=O)(CCn1cc(C)c(=O)[nH]c1=O)OCC	> 871 µM	> 871 µM	–
O=C1C(=Cc2c(O)cc(O)cc2O)C(=O)c2ccccc21	> 17.8 µM	> 17.8 µM	–
CC(C)=CCN1CCCn2c(=S)[nH]c3cccc(c32)C1	> 200 µM	> 200 µM	–
Cc1ccc(SCC(CF)OC(C)n2cnc3c(Cl)nc(N)nc32)cc1 (stereo unspecified)	> 200 µM	38 µM	–
NC1=NNC2(C(N)=N1)c1ccccc1-c1ccccc12	> 200 µM	51.3 µM	–
CCOC(=O)COc1c(C)cc(SSc2cc(C)c(OCC(=O)OCC)c(C)c2)cc1C	> 200 µM	12 µM	–
CCOC(=O)CN1CCNCCN(CC(=O)OCC)CCNCC1	> 100 µM	9.77 µM	–
CN1CCCC2[C@@H]3CCC4=C(O)C(=O)CC[C@]4(C)C3CC[C@@]21C (stereo partly specified)	> 74.1 µM	> 74.1 µM	–
CC(=O)OCC1OC(OCC2OC(N3C(=S)N[C@H]([C@@H](O)[C@H](O)[C@H](O)CO)[C@H]3O)C(OC(C)=O)C(OC(C)=O)C2OC(C)=O)C(OC(C)=O)C(OC(C)=O)C1OC(C)=O (stereo partly specified)	> 100 µM	> 100 µM	–
CCCCCCCCCCCCNC(=O)c1ccc([Se][Se]c2ccc(C(=O)NCCCCCCCCCCCC)cc2)cc1	> 7.08 µM	> 7.08 µM	–
COc1nc2nc[nH]c2c(=O)[nH]1	–	–	inactive
Cc1cc(C2CCCCC2)n(O)c(=O)c1	–	–	inactive
C=CC(C)(C)n1cc(C2=C3OC(=O)C(c4cn(C(C)(C)C=C)c5ccccc45)=C3OC2=O)c2ccccc21	> 200 µM	> 200 µM	–
NCCCCC(NC(=O)C(CO)NC(=O)C(N)Cc1cnc[nH]1)C(=O)NC(Cc1ccccc1)C(=O)NC(Cc1c[nH]c2ccccc12)C(=O)NC(Cc1c[nH]c2ccccc12)C(N)=O (stereo unspecified) (H-HSKFWW-NH2; configuration not given here)	> 50.1 µM	> 50.1 µM	–
Cc1cc(C(C)C)cc(O)c(=O)c1	–	–	inactive
COc1cc2c(c3c1c(=O)c1ccccc1n3C)C=CC1(CCCCC1)O2	> 200 µM	7.76 µM	–
